B1: 42CQ-6501: 42CQ, an AFFIMER polypeptide binding serum albumin (SEQ ID NO: 133), conjugated with 6501 (conjugate)
chain: MIPRGLSEAKPATPEIQEIVDKVKPQLEEKTNETYGKLEAVQYKTQVLANFFQRRWPGSTNYYIKVRAGDNKYMHLKVFNGPWKFRNTDRGADRVLTGYQVDKNKDDELTGFAAAGGRAEQKLISEEDLGCAENLYFQGGAAGHHHHHH
modifications: conjugated with 6501

Key:
[1] = test system: mouse tumor model; test: EC50 / maximum tolerated dose studies, mice; assay type: in vivo
Experimental: (§1) Half-maximal effective concentration (EC50) studies were undertaken to examine the difference between mice and rats administered talabostat alone (FIG. 4A) and mice and rats administered the therapeutic conjugates comprising talabostat (FIG. 4B). When talabostat is administered alone, the talabostat maximum tolerated dose (MTD) is about 3 mg/m^2 in a mouse tumor model and 0.18 mg/m^2 in rats. That is, the talabostat MTD is 1/17 the tumor model EC50 (FIG. 4A). In contrast, when the talabostat is administered as part of the therapeutic conjugate, the MTD is 160 mg/m^2 in the mouse model and the EC50 for rats is greater than 500 mg/m^2 (FIG. 4B). Talabostat, as part of the therapeutic conjugate, can be administered to rats and mice at therapeutically effective doses.

[2] = test system: rats; test: EC50 / maximum tolerated dose studies, rats; assay type: in vivo, rat
Experimental: as §1

[3] = test system: G-CSF; settings: VbP alone, known; cited from earlier work
[4] = test system: G-CSF; test: G-CSF serum cytokine response in nontumor-bearing BALB/c mice (ELISA); assay type: in vivo; settings: 200 μg/mouse intraperitoneal, six hours after dosing (FIG. 23)
Experimental: The FAP-activated prodrug G-CSF serum cytokine response in nontumor-bearing BALB/c mice was examined. Female BALB/c mice of 11-12 weeks of age were injected intraperitonially with vehicle (PBS), 42CQ-6501, or 42CQ-6501+MSA at 200 μg/mouse, in groups of 5 mice per treatment.
While cytokine recruitment is believed to play an important role in tumor immunity, its presence in the serum represents a systemic response, which can lead to unwanted adverse effects. […] 42CQ is an AFFIMER® polypeptide designed to bind to serum albumin (SEQ ID NO: 133). Consequently, the 42CQ-based conjugates (with 6501) were prepared with or without prebinding to MSA to determine whether there was an evident difference between the two formulations.
Six hours after dosing, blood was collected to measure G-CSF in the serum using a mouse G-CSF Quantikine ELISA kit.

Molecule | maximum tolerated dose (MTD) ([1]; mouse tumor model) | talabostat MTD relative to the tumor model EC50 ([1]; talabostat administered alone (FIG. 4A)) | maximum tolerated dose (MTD) [2] [mg/m^2] | serum G-CSF response [3] | serum concentration of G-CSF [4]
CC(C)[C@H](N)C(=O)N1CCC[C@H]1B(O)O [Talabostat, Val-boroPro] | about 3 mg/m^2 | 1/17 | 0.18 | large serum G-CSF response | 
B1 |  |  |  |  | significant increase
